Test results as given in patent US20230338315A1, “METHOD OF PRODUCING PHARMACEUTICAL COCRYSTALS FOR ADDITIVE MANUFACTURING” (BOARD OF REGENTS, THE UNIVERSITY OF TEXAS SYSTEM, priority 2020, published 2023).

Tests used:
[1] = Preformulation studies: solubility in solvents; type: physicochemical; details: for Soluble in solvent ET-Acetate: solvent ethyl acetate
Method: Both the drug and conformer were soluble in ethyl acetate. Ethyl acetate was used to prepare pure MA-SAC cocrystals using slow solvent evaporation. Briefly, 1:1 molar ratio of MA and SAC were mixed using a mortar and pestle. This blend was dissolved in ethyl acetate at 50° C. in a glass beaker using a magnetic stirrer-hotplate. Once the physical mixture was dissolved, the solvent was placed on an ice bath to induce nucleation of the cocrystals, the beaker was then placed in fume hood until all the solvent was evaporated. After the solvent was evaporated, the crystals were placed in an oven at 60° C. to remove any residual solvent. The resultant crystals were tested for modulated differential scanning calorimetry. A clear phase separation was observed where crystals with two different habits were developed. Samples for each phase were collected and exposed to thermal analysis.

[2] = cited from earlier work
[3] = cited from earlier work; remark: listed apart in the source
[4] = HPLC with mass spectrophotometer of hot melt extruded mefenamic acid (degradant identification); type: physicochemical
[5] = Preformulation studies with Kollidon VA64 (decomposition of mefenamic acid); type: physicochemical; details: presence of Kollidon VA64

Structure (SMILES)	Soluble in solvent ACN [1]	Soluble in solvent Et—OH [1]	Soluble in solvent Me—OH [1]	Soluble in solvent ET-Acetate [1]	Log P [2]	pKa [3]	degradation or decarboxylation in the extruded samples ([4]; continuous, solvent-free, polymer assisted hot melt extrusion)	degradation on hot melt extrusion processing (mass spectroscopy) ([4]; processed with saccharin by HME at 200° C., 180° C., 170° C. and 160° C., no polymer carrier)	effect of Kollidon VA64 on decomposition of mefenamic acid [5]
O=C1NS(=O)(=O)c2ccccc21 [Saccharin]	Yes	No	Yes	Yes	0.91	1.31	–	–	–
Cc1cccc(Nc2ccccc2C(=O)O)c1C [Mefenamic acid]	No	Yes	No	Yes	–	–	no degradation or decarboxylation	decarboxylation	can delay the decomposition
